The text below walks through data of publication PMC9815933, “Computational Drug Repurposing Approach to Identify Novel Inhibitors of ILK Protein for Treatment of Esophageal Squamous Cell Carcinoma” (Journal of Oncology, 2022).

This assay deals with T1, integrin-linked kinase (ILK) (Homo sapiens, UniProt Q13418).
T1 sequence (Q13418 1-452): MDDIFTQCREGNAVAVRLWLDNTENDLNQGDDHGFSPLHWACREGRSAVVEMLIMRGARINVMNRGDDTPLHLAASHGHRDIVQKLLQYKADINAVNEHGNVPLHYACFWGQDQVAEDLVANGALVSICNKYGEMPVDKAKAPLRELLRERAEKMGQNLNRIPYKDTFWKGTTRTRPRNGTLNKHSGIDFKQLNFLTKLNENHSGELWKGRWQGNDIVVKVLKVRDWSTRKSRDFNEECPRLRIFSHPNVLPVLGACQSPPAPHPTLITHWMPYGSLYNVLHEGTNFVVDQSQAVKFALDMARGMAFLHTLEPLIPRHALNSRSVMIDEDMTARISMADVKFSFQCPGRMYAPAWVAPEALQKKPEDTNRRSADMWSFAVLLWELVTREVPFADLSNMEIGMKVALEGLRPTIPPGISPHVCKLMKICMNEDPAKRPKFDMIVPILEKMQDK
Kind of assay: SPR (Biacore S200), ILK immobilized on CM5 chip. The assay is classed as binding. (In general: SPR reads the build-up and loss of mass on a sensor chip optically.)
The Kd is a measure of binding affinity in units of concentration. A low value points to tighter binding. Compound `Cc1cn(-c2cc(NC(=O)c3ccc(C)c(Nc4nccc(-c5cccnc5)n4)c3)cc(C(F)(F)F)c2)cn1` [d1, Nilotinib] displayed a Kd of 6410 nM. In other words, the single-digit micromolar range. To `COc1ccc(N=Nc2c(N)n[nH]c2N)cc1` [ILK-IN-3, reference compound] belongs 2640 nM; to `COc1cc([C@@H]2c3cc4c(cc3[C@@H](O[C@@H]3O[C@@H]5CO[C@@H](c6cccs6)O[C@H]5[C@H](O)[C@H]3O)[C@H]3COC(=O)[C@H]23)OCO4)cc(OC)c1O` [d2, Teniposide], 1790 nM.
